The values below come from patent US20050085413A1, “Dimeric pharmaceutical compounds and their use” (priority 2001, published 2005).

Values after ≈ are worked out from the molar mass of the structure shown.

Series [1] deals with Escherichia coli ATTCC 25922. In words: Kirby-Bauer disk test, zones of inhibition. Particulars: 30 μg/disk; for zone of inhibition at 30 µg/disc: Escherichia coli, ATTCC25922, read-out: diameter of zone of inhibition, Escherichia coli ATTCC 25922. The class given is cell-based. As for the experimental part: (§1) Antibiotic activities were determined using a standard Kirby-Bauer* test and are reported as diameters (in mm) of zones of inhibition for test strains. All compounds were spotted at 30 μg/disk.

For series [2], the system named is Pseudomonas aeuruginosa ATCC 27853. The series can be described thus: Kirby-Bauer disk test, zones of inhibition. Particulars: 30 μg/disk; for zone of inhibition at 30 µg/disc: Pseudomonas, ATCC27853, read-out: diameter of zone of inhibition, Pseudomonas aeuruginosa ATCC 27853. It is filed as cell-based. As for the experimental part: as §1
The test system of series [3] is Enterococcus faecalis ATCC 29212. The series can be described thus: Kirby-Bauer disk test, zones of inhibition. It is filed as cell-based. The following applies: 30 μg/disk; for zone of inhibition at 30 µg/disc: Enterococcus faecalis, ATCC29212, read-out: diameter of zone of inhibition, Enterococcus faecalis ATCC 29212. As for the experimental part: as §1
Series [4] deals with Staphylococcus aureus ATCC 29213. The series can be described thus: Kirby-Bauer disk test, zones of inhibition. The class given is cell-based. The following applies: 30 μg/disk; for zone of inhibition at 30 µg/disc: Staphylococcus aureus, ATCC29213, read-out: diameter of zone of inhibition, Staphylococcus aureus ATCC 29213. As for the experimental part:
as §1

For series [5] the following is noted: in vivo. As for the experimental part:
Rodents were anaesthetised with Ketamine/Domitor mixture according to standard procedures and dosed with compound of interest by the intra-nasal route at a dose volume of approximately 3.0 ml/kg. The rodent is held in the vertical position during dosing of 30 μL per nostril. At different time points, for example, 2, 8, 24, 48 and 168 hours post-dose, levels of compound in the lung tissue are assessed by analytical methods. Any analytical method suitable for detection of this type of compound may be used. The time at which levels of compound fall below the sensitivity of the analytical techniques identified will determine the residency time of the compound in lung tissue.

For the next series, the system named is B/Hong Kong/5/72 BVLV012. The series can be described thus: Plaque reduction assay (PRA) in MDCK cells. Particulars: MDCK, read-out: EC50 ng/ml PRA B/HongK. The class given is cell-based, influenza virus. A general note: Plaques are areas of infected cells; plaque reduction assays count them against a control.
In series [6] the test system is A/Panama/2007/99 BVLV008 (H3N2). In words: Plaque reduction assay (PRA) in MDCK cells. It is filed as cell-based, influenza virus. Particulars: Influenza A virus, H3N2, MDCK, plaque numbers reduced by 50%, read-out: EC50 ng/ml PRA A/Pan.
For series [7], the system named is A/New Caledonia/20/99 BVLV008 (H1N1). In words: Plaque reduction assay (PRA) in MDCK cells. The class given is cell-based, influenza virus. The following applies: Influenza A virus, H1N1, MDCK, plaque numbers reduced by 50%, read-out: EC50 ng/ml PRA A/New.
Series [8] has as its system B/Yamanashi/166/98 BVLV007. The series can be described thus: Plaque reduction assay (PRA) in MDCK cells. Particulars: unidentified influenza virus, MDCK, read-out: EC50 ng/ml PRA B/Yam, B/Yamanashi/166/98 BVLV007; plaque numbers reduced by 50%. The class given is cell-based, influenza virus.
Series [9] concerns A/Victoria/3/75 BVLV017 (H3N2). In words: Plaque reduction assay (PRA) in MDCK cells. It is filed as cell-based, influenza virus. The following applies: Influenza A virus, H3N2, MDCK, plaque numbers reduced by 50%, read-out: EC50 ng/ml PRA A/Vic.

In general, zone of inhibition refers to the size of the clear area around the sample on an inoculated plate. In the case of `NCC1OC(OC2C(N)CC(N)C(OC3OC(CN4CCN(C(=O)Nc5ccc(NC(=O)N6CCN(CC7OC(OC8C(N)CC(N)C(OC9OC(CN)C(O)CC9N)C8O)C(O)C(N)C7O)CC6)cc5)CC4)C(O)C(N)C3O)C2O)C(N)CC1O` (centres unmarked) [Compound 19], the zone of inhibition at 30 µg/disc was 12.1 mm in series [1], 12.8 mm in series [2] and 6.2 mm in series [3].

Take `NC[C@H]1O[C@H](O[C@H]2[C@H](O)[C@@H](O[C@H]3O[C@H](CO)[C@@H](O)[C@H](N)[C@H]3O)[C@H](N)C[C@@H]2N)[C@H](O)[C@@H](O)[C@@H]1O` [Kanamycin A, reference compound]: the “diameter of zone of inhibition, Escherichia coli ATTCC 25922” value in series [1] is listed as 18.2 mm. Further, in [2], the “diameter of zone of inhibition, Pseudomonas aeuruginosa ATCC 27853” value turned out to be 6.2 mm. Also, the “diameter of zone of inhibition, Enterococcus faecalis ATCC 29212” value in series [3] came to 6.7 mm. Besides, the “diameter of zone of inhibition, Staphylococcus aureus ATCC 29213” value in series [4] was found to be 19.1 mm.

With `NCC1OC(OC2C(N)CC(N)C(OC3OC(CNC(=O)Nc4ccc(Cc5ccc(NC(=O)NCC6OC(OC7C(N)CC(N)C(OC8OC(CN)C(O)CC8N)C7O)C(O)C(N)C6O)cc5)cc4)C(O)C(N)C3O)C2O)C(N)CC1O` (centres unmarked) [Compound 13], the zone of inhibition at 30 µg/disc was 7.1 mm in [1], 8.9 mm in series [2], 6.5 mm in series [3] and 8.6 mm in [4].

With `NCC1OC(OC2C(N)CC(N)C(OC3OC(CN4CCNCC4)C(O)C(N)C3O)C2O)C(N)CC1O` (centres unmarked) [Compound 5], the zone of inhibition at 30 µg/disc in [1] was found to be 10.5 mm; in series [2], 13.8 mm; in series [3] it was 7.4 mm; in [4] it was 18.6 mm. Also, the “nmole retained per gram of mouse lung after 7 days” value (shortened to “nmole retained per gram”) in [5] is given as 0.8 nmole per gram.

Regarding `NCC1OC(OC2C(N)CC(N)C(OC3OC(CN4CCN(CCCCCCCCCCCCN5CCN(CC6OC(OC7C(N)CC(N)C(OC8OC(CN)C(O)CC8N)C7O)C(O)C(N)C6O)CC5)CC4)C(O)C(N)C3O)C2O)C(N)CC1O` (centres unmarked) [Compound 20], the zone of inhibition at 30 µg/disc in series [1] came out at 7.8 mm; in series [2], 7.5 mm; in series [3], 6.2 mm.

For the molecule `NCC1OC(OC2C(N)CC(N)C(OC3OC(COC(=O)NCCCCCCCCCCCCNC(=O)OCC4OC(OC5C(N)CC(N)C(OC6OC(CN)C(O)CC6N)C5O)C(O)C(N)C4O)C(O)C(N)C3O)C2O)C(N)CC1O` (centres unmarked) [Compound 1], the zone of inhibition at 30 µg/disc in series [1] was determined as 7 mm; in series [2] it was 6.3 mm; in [3], 6 mm; in series [4], 8.9 mm.

As for `NCC1OC(OC2C(N)CC(N)C(OC3OC(COC(=O)Nc4ccc(Cc5ccc(NC(=O)OCC6OC(OC7C(N)CC(N)C(OC8OC(CN)C(O)CC8N)C7O)C(O)C(N)C6O)cc5)cc4)C(O)C(N)C3O)C2O)C(N)CC1O` (centres unmarked) [Compound 4], the zone of inhibition at 30 µg/disc turned out to be 7.9 mm in series [1], 9.2 mm in series [2], 6 mm in [3] and 9.3 mm in series [4].

For `NC12CC3CC(CC(C3)C1)C2` [Amantadine], the EC50 was above 10000 ng/mL with B/Hong Kong/5/72 BVLV012; 157 ng/mL (≈ 1.04 µM) in [6]; 11 ng/mL (≈ 0.0727 µM) in series [7]; 2060 ng/mL (≈ 13.6 µM) in [8]; 220 ng/mL (≈ 1.45 µM) in series [9].

In the case of `Cc1cc(C)c(NC(=O)N2CCN(CC3OC(OC4C(N)CC(N)C(OC5OC(CN)C(O)CC5N)C4O)C(O)C(N)C3O)CC2)c(C)c1NC(=O)N1CCN(CC2OC(OC3C(N)CC(N)C(OC4OC(CN)C(O)CC4N)C3O)C(O)C(N)C2O)CC1` (centres unmarked) [Compound 16], the results for the zone of inhibition at 30 µg/disc in series [1], in [2] and in [3] were 6.5 mm, 10.1 mm and 6.2 mm, respectively. In [5], the “nmole retained per gram” value was 2.8 nmole per gram.

As to `NCC1OC(OC2C(N)CC(N)C(OC3OC(CN4CCN(C(=O)CCCCCCCCCCCCCC(=O)N5CCCN(CC6OC(OC7C(N)CC(N)C(OC8OC(CN)C(O)CC8N)C7O)C(O)C(N)C6O)C5)CC4)C(O)C(N)C3O)C2O)C(N)CC1O` (centres unmarked) [Compound 7], the zone of inhibition at 30 µg/disc in series [1] came out at 6.5 mm; in series [2], 8.9 mm; in series [3], 6.2 mm.

Regarding `NCC1OC(OC2C(N)CC(N)C(OC3OC(CN4CCN(C(=O)c5ccccc5-c5ccccc5C(=O)N5CCN(CC6OC(OC7C(N)CC(N)C(OC8OC(CN)C(O)CC8N)C7O)C(O)C(N)C6O)CC5)CC4)C(O)C(N)C3O)C2O)C(N)CC1O` (centres unmarked) [Compound 8], the zone of inhibition at 30 µg/disc in series [1] came to 11.4 mm; in series [2], 12.1 mm; in [3] it was 6.2 mm. The “nmole retained per gram” value in [5] turned out to be 4.6 nmole per gram.

Consider `NCC1OC(OC2C(N)CC(N)C(OC3OC(CN4CCN(C(=O)CCC(=O)N5CCN(CC6OC(OC7C(N)CC(N)C(OC8OC(CN)C(O)CC8N)C7O)C(O)C(N)C6O)CC5)CC4)C(O)C(N)C3O)C2O)C(N)CC1O` (centres unmarked) [Compound 25], for which the zone of inhibition at 30 µg/disc in series [2] turned out to be 6 mm.

For `NCC1OC(OC2C(N)CC(N)C(OC3OC(CN4CCN(C(=O)Nc5ccc(Cc6ccc(NC(=O)N7CCN(CC8OC(OC9C(N)CC(N)C(OC%10OC(CN)C(O)CC%10N)C9O)C(O)C(N)C8O)CC7)cc6)cc5)CC4)C(O)C(N)C3O)C2O)C(N)CC1O` (centres unmarked) [Compound 15], the zone of inhibition at 30 µg/disc was determined as 7.7 mm in [1], 9 mm in series [2] and 6.2 mm in series [3].

Turning to Neomycin [reference compound], the “diameter of zone of inhibition, Escherichia coli ATTCC 25922” value in series [1] came out at 14.4 mm. For the same molecule, the “diameter of zone of inhibition, Pseudomonas aeuruginosa ATCC 27853” value in series [2] worked out at 7.1 mm. In addition, the “diameter of zone of inhibition, Enterococcus faecalis ATCC 29212” value in series [3] is 6.7 mm. Further, the “diameter of zone of inhibition, Staphylococcus aureus ATCC 29213” value in [4] was 16.8 mm.

For the molecule `NCC1OC(OC2C(N)CC(N)C(OC3OC(CN)C(O)C(N)C3O)C2O)C(N)CC1O` (centres unmarked) [Compound 2], the zone of inhibition at 30 µg/disc came to 6.3 mm in series [1], 12.8 mm in [2], 6.3 mm in series [3] and 18.2 mm in [4].

As for `NCC[C@H](O)C(=O)N[C@@H]1C[C@H](N)[C@@H](O[C@H]2O[C@H](CN)[C@@H](O)[C@H](O)[C@H]2O)[C@H](O)[C@H]1O[C@H]1O[C@H](CO)[C@@H](O)[C@H](N)[C@H]1O` [Amikacin, reference compound], the zone of inhibition at 30 µg/disc in series [1] is 18.5 mm; in [2], 18.4 mm; in series [3], 6.7 mm; in series [4], 18.2 mm.

For `NCC1OC(OC2C(N)CC(N)C(OC3OC(CN4CCN(Cc5cccc(CN6CCN(CC7OC(OC8C(N)CC(N)C(OC9OC(CN)C(O)CC9N)C8O)C(O)C(N)C7O)CC6)c5)CC4)C(O)C(N)C3O)C2O)C(N)CC1O` (centres unmarked) [Compound 17], the zone of inhibition at 30 µg/disc worked out at 6.5 mm in series [1], 8.5 mm in series [2] and 6.2 mm in series [3].

Take `CCOC(=O)C1=C[C@@H](OC(CC)CC)[C@H](NC(C)=O)[C@@H](N)C1` [Oseltamivir]: the EC50 stood at 32 ng/mL (≈ 0.102 µM) with B/Hong Kong/5/72 BVLV012; 0.3 ng/mL (≈ 0.00096 µM) in series [6]; 0.23 ng/mL (≈ 0.000736 µM) in [7]; 0.7 ng/mL (≈ 0.00224 µM) in series [8]; 0.11 ng/mL (≈ 0.000352 µM) in series [9].

As to `NCC1OC(OC2C(N)CC(N)C(OC3OC(CNCCCCNC(=O)Nc4ccc(Cc5ccc(NC(=O)NCCCCNCC6OC(OC7C(N)CC(N)C(OC8OC(CN)C(O)CC8N)C7O)C(O)C(N)C6O)cc5)cc4)C(O)C(N)C3O)C2O)C(N)CC1O` (centres unmarked) [Compound 22], the zone of inhibition at 30 µg/disc in series [2] was determined as 6 mm.

In the case of `NC1CC(O)C(CNC(=O)NCCCCCCCCCCCCNC(=O)NCC2OC(OC3C(N)CC(N)C(OC4OC(CO)C(O)C(N)C4O)C3O)C(N)CC2O)OC1OC1C(N)CC(N)C(OC2OC(CO)C(O)C(N)C2O)C1O` (centres unmarked) [Compound 18], the zone of inhibition at 30 µg/disc in series [1] came out at 7.6 mm; in series [2], 10.4 mm; in series [3], 6.2 mm. Further, the “nmole retained per gram” value in series [5] is reported as 6.6 nmole per gram.

For the molecule `NC[C@H]1O[C@H](O[C@H]2[C@H](O)[C@@H](O[C@H]3O[C@H](CO)[C@@H](O)[C@H](N)[C@H]3O)[C@H](N)C[C@@H]2N)[C@H](N)C[C@@H]1O` [Tobramycin, reference compound], the zone of inhibition at 30 µg/disc in series [1] is 18.4 mm; in [2], 24.9 mm; in [3], 15.7 mm; in [4], 26.7 mm. The “nmole retained per gram” value in [5] amounted to 2.1 nmole per gram.
